Data as given in patent US12599672B2, “KRAS proteolysis targeting chimeras” (PAQ Therapeutics Inc., priority 2023, dated 2026).

What was measured:
Format in all cases: cell-based
[1] = target: T1, KRAS G12V (Homo sapiens, UniProt P01116, G12V); experiment: KRAS G12V HiBit assay; details: SW620-KRAS (G12V)-HiBit-KI cells, compound treatment for 24 hours, class symbols
T1 construct: SW620-KRAS (G12V)-HiBit-KI cell (Pharmaron); host or cells: SW620-KRAS (G12V)-HiBit-KI cells (HiBiT knock-in at the endogenous KRAS locus)
How it was run: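 HiBiT-tagged KRAS G12V cells treated 24 h with compound in a 3-fold, 10-point series (0.3 mM DMSO stock); lytic HiBiT reagent with LgBiT added after 15 min room-temperature equilibration. Degradation calculated against 0.1% DMSO high control.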

[2] = target: T2, KRAS G12D (Homo sapiens, UniProt P01116, G12D); experiment: KRAS G12D HiBit assay; details: AsPc-1-KRAS (G12D)-HiBit-KI cell, compound treatment for 24 hours; for DC50: absolute DC50
T2 construct: AsPc-1-KRAS (G12D)-HiBit-KI cell (Pharmaron); host or cells: AsPc-1-KRAS (G12D)-HiBit-KI cells (HiBiT knock-in at the endogenous KRAS locus)
How it was run: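 Cells were treated for 24 h with compounds in a 3-fold, 10-point dilution series from a 0.3 mM DMSO stock, then equilibrated 15 min at room temperature. KRAS G12D HiBiT levels were read by luminescence after lytic Nano-Glo HiBiT reagent with LgBiT; inhibition calculated relative to 0.1% DMSO high control.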

[3] = target: T3, KRAS (Homo sapiens, UniProt P01116); experiment: KRASamp MSD assay; details: KE39 (KRAS amplified) cells, treated with test compounds for 24 hr, MSD readout of KRAS degradation
T3 construct: endogenous in cells; host or cells: KE39 (KRAS amplified) cells
How it was run: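 KRAS-amplified KE39 cells treated with compound for 24 hr, then lysed in RIPA buffer with protease/phosphatase inhibitors. KRAS protein measured by MSD sandwich immunoassay against a recombinant WT KRAS standard curve; DC50 derived from curve fitting of degradation.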

T3 sequence (P01116 1-188 isoform P01116-2): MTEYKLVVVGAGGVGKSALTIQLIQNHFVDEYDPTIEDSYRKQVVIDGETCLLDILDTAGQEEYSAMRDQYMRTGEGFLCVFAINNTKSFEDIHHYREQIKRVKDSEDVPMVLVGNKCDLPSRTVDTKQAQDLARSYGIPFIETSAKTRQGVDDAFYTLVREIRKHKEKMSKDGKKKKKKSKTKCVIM
T1 sequence (P01116 1-188 isoform P01116-2 G12V): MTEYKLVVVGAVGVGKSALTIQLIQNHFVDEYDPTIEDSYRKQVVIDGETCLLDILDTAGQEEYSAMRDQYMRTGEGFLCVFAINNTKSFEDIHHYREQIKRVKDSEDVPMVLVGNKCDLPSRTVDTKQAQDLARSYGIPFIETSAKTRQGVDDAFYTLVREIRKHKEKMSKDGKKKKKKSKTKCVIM
T2 sequence (P01116 1-188 isoform P01116-2 G12D): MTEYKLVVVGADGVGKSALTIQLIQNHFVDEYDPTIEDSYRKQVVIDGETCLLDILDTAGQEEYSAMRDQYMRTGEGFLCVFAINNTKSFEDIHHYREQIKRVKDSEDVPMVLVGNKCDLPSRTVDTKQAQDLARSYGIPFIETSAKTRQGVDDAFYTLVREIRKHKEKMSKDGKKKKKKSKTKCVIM

| SMILES | DC50 [1] [µM] | DC50 ([2]; class symbols) [µM] | DC50 [3] [µM] | Dmax ([2]; class symbols) [%] | DC50 ([2]; numeric bounds given in place of class symbols) [µM] |
| --- | --- | --- | --- | --- | --- |
| CCc1c(F)ccc2cc(O)cc(-c3ccc4c(N5CCC[C@@](C)(O)C5)nc(OC[C@@]56CCCN5[C@H](COC(=O)N5CCC7(CC5)CC(N5CCC(c8ccc9c(c8)n(C)c(=O)n9C8CCC(=O)NC8=O)CC5)C7)CC6)nc4c3F)c12 (stereo partly drawn) [Compound 355, ((3S,7aS)-7a-(((7-(8-ethyl-7-fluoro-3-hydroxynaphthalen-1-yl)-8-fluoro-4-((R)-3-hydroxy-3-methylpiperidin-1-yl)quinazolin-2-yl)oxy)methyl)hexahydro-1H-pyrrolizin-3-yl)methyl 2-(4-(1-(2,6-dioxopiperidin-3-yl)-3-methyl-2-oxo-2,3-dihydro-1H-benzo[d]imidazol-5-yl)piperidin-1-yl)-7-azaspiro[3.5]nonane-7-carboxylate] | < 0.01 | < 0.1 | < 0.001 |  |  |
| CCc1c(F)ccc2cc(O)cc(-c3ncc4c(N5CCC[C@@](C)(O)C5)nc(OC[C@@]56CCCN5[C@H](COC(=O)N5CCCC5CN5CCC(c7ccc8c(c7)n(C)c(=O)n8C7CCC(=O)NC7=O)CC5)CC6)nc4c3F)c12 (stereo partly drawn) [Compound 434, ((3S,7aS)-7a-(((7-(8-ethyl-7-fluoro-3-hydroxynaphthalen-1-yl)-8-fluoro-4-((R)-3-hydroxy-3-methylpiperidin-1-yl)pyrido[4,3-d]pyrimidin-2-yl)oxy)methyl)hexahydro-1H-pyrrolizin-3-yl)methyl 2-((4-(1-(2,6-dioxopiperidin-3-yl)-3-methyl-2-oxo-2,3-dihydro-1H-benzo[d]imidazol-5-yl)piperidin-1-yl)methyl)pyrrolidine-1-carboxylate] | 0.01 to 0.1 | < 0.1 | 0.001 to 0.01 |  |  |
| CCc1c(F)ccc2cc(O)cc(-c3ncc4c(N5CCCCC5)nc(OC[C@@]56CCCN5[C@H](CN5CCC(CN7CCC(c8ccc9c(c8)n(C)c(=O)n9C8CCC(=O)NC8=O)CC7)CC5)CC6)nc4c3F)c12 (stereo partly drawn) [Compound 379, 3-(5-(1-((1-(((3S,7aS)-7a-(((7-(8-ethyl-7-fluoro-3-hydroxynaphthalen-1-yl)-8-fluoro-4-(piperidin-1-yl)pyrido[4,3-d]pyrimidin-2-yl)oxy)methyl)hexahydro-1H-pyrrolizin-3-yl)methyl)piperidin-4-yl)methyl)piperidin-4-yl)-3-methyl-2-oxo-2,3-dihydro-1H-benzo[d]imidazol-1-yl)piperidine-2,6-dione] | < 0.01 | < 0.1 | < 0.001 |  |  |
| CCc1c(F)ccc2cc(O)cc(-c3ncc4c(N5CCC[C@@](C)(O)C5)nc(OC[C@@]56CCCN5[C@H](COC(=O)NC5CCN(C7CCN(c8ccc9c(c8)n(C)c(=O)n9C8CCC(=O)NC8=O)CC7)CC5)CC6)nc4c3F)c12 (stereo partly drawn) [Compound 427, ((3S,7aS)-7a-(((7-(8-ethyl-7-fluoro-3-hydroxynaphthalen-1-yl)-8-fluoro-4-((R)-3-hydroxy-3-methylpiperidin-1-yl)pyrido[4,3-d]pyrimidin-2-yl)oxy)methyl)hexahydro-1H-pyrrolizin-3-yl)methyl (1′-(1-(2,6-dioxopiperidin-3-yl)-3-methyl-2-oxo-2,3-dihydro-1H-benzo[d]imidazol-5-yl)-[1,4′-bipiperidin]-4-yl)carbamate] | 0.01 to 0.1 | < 0.1 | ≥ 0.01 |  |  |
| CCc1c(F)ccc2cc(O)cc(-c3ncc4c(N5CCC[C@@](C)(O)C5)nc(OC[C@@]56CCCN5[C@H](COC(=O)N5CCC(CN7CCC(c8ccc9c(C%10CCC(=O)NC%10=O)nn(C)c9c8F)CC7)CC5)CC6)nc4c3F)c12 (stereo partly drawn) [Compound 100, [(3S,8S)-8-[[7-(8-ethyl-7-fluoro-3-hydroxy-1-naphthyl)-8-fluoro-4-[(3R)-3-hydroxy-3-methyl-1-piperidyl]pyrido[4,3-d]pyrimidin-2-yl]oxymethyl]-1,2,3,5,6,7-hexahydropyrrolizin-3-yl]methyl 4-[[4-[3-(2,6-dioxo-3-piperidyl)-7-fluoro-1-methyl-indazol-6-yl]-1-piperidyl]methyl]piperidine-1-carboxylate] | < 0.01 | < 0.1 | < 0.001 | > 50 |  |
| CCc1c(F)ccc2cc(O)cc(-c3ncc4c(N5CCC[C@@](C)(O)C5)nc(OC[C@@]56CCCN5[C@H](COC(=O)N5CCC7(CC5)CCN(C5CCN(c8ccc9c(c8)n(C)c(=O)n9C8CCC(=O)NC8=O)CC5)C7)CC6)nc4c3F)c12 (stereo partly drawn) [Compound 456, ((3S,7aS)-7a-(((7-(8-ethyl-7-fluoro-3-hydroxynaphthalen-1-yl)-8-fluoro-4-((R)-3-hydroxy-3-methylpiperidin-1-yl)pyrido[4,3-d]pyrimidin-2-yl)oxy)methyl)hexahydro-1H-pyrrolizin-3-yl)methyl 2-(1-(1-(2,6-dioxopiperidin-3-yl)-3-methyl-2-oxo-2,3-dihydro-1H-benzo[d]imidazol-5-yl)piperidin-4-yl)-2,8-diazaspiro[4.5]decane-8-carboxylate] | < 0.01 | < 0.1 | 0.001 to 0.01 |  |  |
| CCc1c(F)ccc2cc(O)cc(-c3ncc4c(N5CCC[C@@](C)(O)C5)nc(OC[C@@]56CCCN5[C@H](COC(=O)Nc5ccc(N7CCC(c8ccc9c(c8)n(C)c(=O)n9C8CCC(=O)NC8=O)CC7)cc5)CC6)nc4c3F)c12 (stereo partly drawn) [Compound 451, ((3S,7aS)-7a-(((7-(8-ethyl-7-fluoro-3-hydroxynaphthalen-1-yl)-8-fluoro-4-((R)-3-hydroxy-3-methylpiperidin-1-yl)pyrido[4,3-d]pyrimidin-2-yl)oxy)methyl)hexahydro-1H-pyrrolizin-3-yl)methyl (4-(4-(1-(2,6-dioxopiperidin-3-yl)-3-methyl-2-oxo-2,3-dihydro-1H-benzo[d]imidazol-5-yl)piperidin-1-yl)phenyl)carbamate] | < 0.01 | < 0.1 | < 0.001 |  |  |
| CCc1c(F)ccc2cc(O)cc(-c3ncc4c(N5CCC[C@@](C)(O)C5)nc(OC[C@@]56CCCN5[C@H](COC(=O)N5CCC7(CCC(CN8CCC(c9ccc%10c(c9)n(C)c(=O)n%10C9CCC(=O)NC9=O)CC8)CC7)C5)CC6)nc4c3F)c12 (stereo partly drawn) [Compound 457, ((3S,7aS)-7a-(((7-(8-ethyl-7-fluoro-3-hydroxynaphthalen-1-yl)-8-fluoro-4-((R)-3-hydroxy-3-methylpiperidin-1-yl)pyrido[4,3-d]pyrimidin-2-yl)oxy)methyl)hexahydro-1H-pyrrolizin-3-yl)methyl 8-((4-(1-(2,6-dioxopiperidin-3-yl)-3-methyl-2-oxo-2,3-dihydro-1H-benzo[d]imidazol-5-yl)piperidin-1-yl)methyl)-2-azaspiro[4.5]decane-2-carboxylate] | < 0.01 | < 0.1 | < 0.001 |  |  |
| CCc1c(F)ccc2cc(O)cc(-c3ncc4c(N5CCC[C@H](CO)C5)nc(OC[C@@]56CCCN5[C@H](COC(=O)N5CCC(CN7CCC(c8ccc9c(c8)n(C)c(=O)n9C8CCC(=O)NC8=O)CC7)CC5)CC6)nc4c3F)c12 (stereo partly drawn) [Compound 339, ((3S,7aS)-7a-(((7-(8-ethyl-7-fluoro-3-hydroxynaphthalen-1-yl)-8-fluoro-4-((S)-3-(hydroxymethyl)piperidin-1-yl)pyrido[4,3-d]pyrimidin-2-yl)oxy)methyl)hexahydro-1H-pyrrolizin-3-yl)methyl 4-((4-(1-(2,6-dioxopiperidin-3-yl)-3-methyl-2-oxo-2,3-dihydro-1H-benzo[d]imidazol-5-yl)piperidin-1-yl)methyl)piperidine-1-carboxylate] | > 0.1 |  | 0.001 to 0.01 |  | > 0.1 |
